Patent EP4711377A1, “STEROID COMPOUND, PREPARATION METHOD THEREFOR, AND USE THEREOF” (Shujing Biopharma Co., Ltd, priority 2023, dated 2024)

Assays:
[1] = system: mice with PTZ-induced convulsions; experiment: in vivo efficacy experiment in PTZ-induced epilepsy mouse model; parameters: species or system C57 mice; details: for Survival rate: 60 min before PTZ 120 mg/kg s.c., 30 min observation; for Number of clonic seizures / Number of tonic seizures / Clonic seizure latency period / Tonic seizure latency period: Mean ± SEM; for Clonic seizure latency period / Tonic seizure latency period: no seizure in 30 min recorded as 1800 s; for protective effects against acute epileptic seizures: conclusion in words
Protocol: Male C57 mice, purchased from SPF (Suzhou) Biotechnology Co., Ltd.
PTZ: a 120 mg/kg PTZ solution (administration volume: 10 mL/kg) was prepared with normal saline as the solvent.
Test compounds: solutions of the test compounds at 3/1/0.3 mg/kg (administration volume: 10 mL/kg) were prepared with Vehicle in section 1.4 as the solvent.
One hour before the test, the experimental animals were transferred into an operation room for acclimation.
The mice were randomly grouped, marked, and weighed, with 10 mice in each group. At 60 min before PTZ administration, the test compounds and Vehicle were separately orally administered.
The PTZ solution was administered subcutaneously before experimental observation, and this time point was recorded as the observation starting point.
Immediately after PTZ administration, the animals were placed in observation boxes and observed for 30 min. The following observations of the animals were recorded:
Clonic seizure: the animal has a generalized myoclonus that lasts for more than 3 s and is accompanied by falling.
Tonic seizure: the limbs are straightened at a 90° angle to the torso.
All metrology data were expressed as mean ± standard error of mean (Mean ± SEM), and the Prism 8.0 statistical software was used for data testing and analysis.

GABAa receptor (α1β2γ2) = GABAa receptor (α1β2γ2) (Homo sapiens, UniProt P14867+P47870); experiment: in vitro GABAa receptor (α1β2γ2) cellular activity assay, manual whole-cell patch clamp, enhancement of currents induced by 1 µM GABA; format: cell-based; details: CHO cells; for activation at 0.1 µM: read-out: Agonist ratio
Sequence of GABAa receptor (α1β2γ2) (P14867 28-456): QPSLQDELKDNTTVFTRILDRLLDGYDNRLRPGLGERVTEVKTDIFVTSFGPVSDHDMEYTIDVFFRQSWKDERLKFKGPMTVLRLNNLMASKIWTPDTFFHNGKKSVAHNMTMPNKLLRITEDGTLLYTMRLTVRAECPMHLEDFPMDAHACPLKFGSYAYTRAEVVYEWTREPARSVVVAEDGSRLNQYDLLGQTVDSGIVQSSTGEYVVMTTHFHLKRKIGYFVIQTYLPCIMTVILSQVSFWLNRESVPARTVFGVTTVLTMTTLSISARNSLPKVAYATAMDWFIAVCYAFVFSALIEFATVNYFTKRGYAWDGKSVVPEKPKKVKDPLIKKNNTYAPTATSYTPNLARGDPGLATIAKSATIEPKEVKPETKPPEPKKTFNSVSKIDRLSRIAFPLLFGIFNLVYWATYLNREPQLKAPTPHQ
Sequence of GABAa receptor (α1β2γ2) (P47870 25-512 limits assumed): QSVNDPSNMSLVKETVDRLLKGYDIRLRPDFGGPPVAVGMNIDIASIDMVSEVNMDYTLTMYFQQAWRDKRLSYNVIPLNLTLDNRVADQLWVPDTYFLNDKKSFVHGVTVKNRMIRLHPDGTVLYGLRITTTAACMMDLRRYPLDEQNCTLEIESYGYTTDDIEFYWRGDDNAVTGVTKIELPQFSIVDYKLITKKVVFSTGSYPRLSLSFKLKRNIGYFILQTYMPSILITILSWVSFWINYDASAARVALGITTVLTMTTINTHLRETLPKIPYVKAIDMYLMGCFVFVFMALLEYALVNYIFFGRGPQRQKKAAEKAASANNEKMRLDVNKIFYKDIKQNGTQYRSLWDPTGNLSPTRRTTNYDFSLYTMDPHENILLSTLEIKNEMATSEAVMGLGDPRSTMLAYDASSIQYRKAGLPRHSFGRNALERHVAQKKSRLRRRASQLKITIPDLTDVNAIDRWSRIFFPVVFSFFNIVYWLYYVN
Sequence of GABAa receptor (α1β2γ2) (P18507 40-475 partner): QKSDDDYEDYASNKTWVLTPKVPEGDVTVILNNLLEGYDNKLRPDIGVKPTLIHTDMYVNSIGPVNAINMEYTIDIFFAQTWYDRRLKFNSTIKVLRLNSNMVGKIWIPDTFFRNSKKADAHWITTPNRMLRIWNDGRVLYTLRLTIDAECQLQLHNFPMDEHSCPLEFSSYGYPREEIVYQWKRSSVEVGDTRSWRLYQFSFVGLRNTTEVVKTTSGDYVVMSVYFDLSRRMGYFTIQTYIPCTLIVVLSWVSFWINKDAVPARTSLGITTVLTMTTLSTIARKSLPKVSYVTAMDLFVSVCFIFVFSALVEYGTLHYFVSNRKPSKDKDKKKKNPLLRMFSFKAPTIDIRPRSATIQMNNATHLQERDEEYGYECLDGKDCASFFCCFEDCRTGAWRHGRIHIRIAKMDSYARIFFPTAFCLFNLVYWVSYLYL
Protocol: The cells used in this experiment were derived from a CHO cell line that stably expressed normal GABAa receptor functions after transfection with human GABAa receptor α1, β2, and γ2 subunit cDNAs. The cell line was constructed by B'sys GmbH. The cells were cultured in a medium (purchased from Invitrogen) containing the following components: DMEM culture medium; 10% (v/v) inactivated fetal bovine serum; 5 µg/mL Puromycin; 250 µg/mL Hygromycin B; and 100 µg/mL Zeocin. The cells were grown in culture dishes containing the above medium and cultured in an incubator at 37 °C with 5% CO2. 12 h to 24 h before the electrophysiological experiment, the cells were transferred onto circular glass slides placed in culture dishes, and were grown under the same medium and culture conditions as above. The density of cells on each circular glass slide was required to meet the requirement that the overwhelming majority of cells were independent and individual.
In this experiment, a manual patch-clamp system HEKA EPC10 USB signal amplifier and digital conversion system (purchased from HEKA Electronics, Germany) were used for whole-cell current recording. The circular glass slides with surface-grown CHO GABAa cells (see the cell culture and requirement section above) were taken out from the culture dishes and then placed into an electrophysiological recording chamber under an inverted microscope. The recording chamber was continuously perfused with extracellular fluid (approximately 1-2 mL/min). In the experiment, the whole-cell current recording technique was employed to record chloride ion currents of GABAa channels. 1 µM GABA was used to activate chloride ion currents of GABAa channels on each cell as an initial control (the reason for using 1 µM GABA concentration was that: this concentration was an effective activation concentration for the GABAa ion channel agonist GABA on the cells used in this experiment, falling between 10% and 20%). Unless otherwise specified, the experiment was performed at conventional room temperature (about 25 °C), and only cells meeting the electrophysiological recording criteria were adopted. In the experiment, the cells were ruptured and sealed, and were clamped at -80 mV after entering a whole-cell state. 1 µM GABA acted on the cells through the drug perfusion system to induce chloride ion currents of GABAa channels; the action time was about 4 s, and the current magnitude was used as the initial control value. Subsequently, the cells were perfused and incubated with the test concentration compound for 3 min, and then a mixed solution of 1 µM GABA and the corresponding test concentration compound was applied to act on the cells to induce currents, so as to observe the enhancing effect of the test compound on the currents induced by 1 µM GABA. When the cell state stabilized, the test compound would be applied from low to high concentrations to act on the same cell. In the experiment, to avoid current reduction caused by desensitization of GABAa ion channels, the interval time for the test substance acting on the cells through the drug perfusion system was at least 180 s.
The experimental data were analyzed using data analysis software provided by HEKA Patchmaster, Microsoft Excel, and Graphpad Prism.

[2] = in vivo pharmacokinetic experiment in mice; parameters: species or system ICR mice; details: mouse, oral intragastric administration 10 mg/kg, single, plasma
Protocol: Male ICR mice were subjected to oral intragastric administration. The plasma concentrations of the compounds of the present disclosure in the mice were measured, the PK parameters were calculated, and pharmacokinetic evaluation was performed on the compounds of the present disclosure.
Drug preparation: according to the weight of the weighed drug, the preparation volume was calculated; 5% of DMSO and 5% of HS-15 were added sequentially; after the drug was fully dissolved, 90% of a 20% aqueous β-cyclodextrin solution was added, and the mixture was well mixed for later use.
Route of administration: oral intragastric administration, at a dose of 10 mg/kg.
Administration frequency and duration: single administration.
ICR mice were stratified according to body weight and then randomly grouped, with 9 mice per group. The mice were fasted overnight prior to the experiment. The mice were subjected to oral intragastric administration. At 0 h, 0.167 h, 0.333 h, 0.5 h, 1 h, 2 h, 4 h, 6 h, 8 h, 12 h, and 24 h, 50 µL of blood was collected from the fundus vein of each mouse into a sample tube containing heparin sodium as an anticoagulant, and then the tube was placed in wet ice and centrifuged at 4000 r·min^-1 for 10 min. The plasma was separated, and cryopreserved in a refrigerator at -80 °C for testing.
The concentrations of the plasma samples were measured by high-performance liquid chromatography-tandem mass spectrometry (LC-MS/MS). The retention times of the compounds and internal standard, chromatographic acquisitions, and integrals of chromatograms were processed using the software Analyst (AB SCIEX), and statistical analysis of the data was performed using the software Microsoft office. The plasma concentrations were processed using a non-compartmental model of the pharmacokinetic software WinNonlin™ Version 6.3 (Pharsight, Mountain View, CA), and the pharmacokinetic parameters were calculated using a linear log-trapezoidal method. Table 4. Results of pharmacokinetic experiment in mice

[3] = single concentration 0.1 µM, relative enhancement amplitude of GABAa receptor currents induced by 1 µM GABA

1-((2S,3S,5R,8R,9R,108,13S,14S,15R,17S)-3-Hydroxy-2,3,13,15-tetramethylhexadecahydro-1H-cyclopenta[a]phenanthren-17-yl)-2-(1H-1,2,3-triazol-1-yl)ethan-1-one [Example 8]
Survival rate ([1]; dose 3 mg/kg p.o.): 100%

C[C@@H]1C[C@H](C(=O)Cn2cc(C#N)cn2)[C@@]2(C)CC[C@H]3[C@@H](CC[C@@H]4C[C@](C)(O)[C@@H](C)C[C@@H]43)[C@H]12 [Example 2, 1-(2-((2S,3S,5R,8R,9R,10S,13S,14S,15R,17S)-3-Hydroxy-2,3,13,15-tetramethylhexadecahydro-1H-cyclopenta[a]phenanthren-17-yl)-2-oxoethyl)-1H-pyrazole-4-carbonitrile]
EC50 (GABAa receptor (α1β2γ2); positive modulator enhancing GABAa receptor currents induced by 1 µM GABA, read-out: EC50): 22 nM
AUC(0-t) [2]: 16600 ng·h/mL
Cmax [2]: 1240 ng/mL
Tmax [2]: 4 h
half-life [2]: 7.38 h

C[C@@H]1C[C@H](C(=O)Cn2ccc(C(F)(F)F)n2)[C@@]2(C)CC[C@H]3[C@@H](CC[C@@H]4C[C@](C)(O)[C@@H](C)C[C@@H]43)[C@H]12 [Example 4, 1-((2S,3S,5R,8R,9R,10S,13S,14S,15R,17S)-3-Hydroxy-2,3,13,15-tetramethylhexadecahydro-1H. cyclopenta[a]phenanthren-17-yl)-2-(3-(trifluoromethyl)-1H-pyrazol-1-yl)ethan-1-one]
Agonist ratio (GABAa receptor (α1β2γ2); [3]): 626%

C[C@@H]1C[C@H](C(=O)Cn2nc(C#N)cc2C#N)[C@@]2(C)CC[C@H]3[C@@H](CC[C@@H]4C[C@](C)(O)[C@@H](C)C[C@@H]43)[C@H]12 [Example 5, 1-(2-((2S,3S,5R,8R,9R,10S,13S,14S,15R,17S)-3-Hydroxy-2,3,13,15-tetramethylhexadecahydro-1H-cyclopenta[a]phenanthren-17-yl)-2-oxoethyl)-1H-pyrazole-3,5-dicarbonitrile]
Survival rate ([1]; dose 0.3 mg/kg p.o.): 10%
Survival rate ([1]; dose 1 mg/kg p.o.): 90%
Survival rate ([1]; dose 3 mg/kg p.o.): 100%
Number of clonic seizures ([1]; dose 3 mg/kg p.o.): 0.6±0.2
Number of tonic seizures ([1]; dose 3 mg/kg p.o.): 0.0±0.0
Clonic seizure latency period ([1]; dose 3 mg/kg p.o.): 1133.7 ± 192.7 s
Tonic seizure latency period ([1]; dose 3 mg/kg p.o.): 1800.0 ± 0.0 s
protective effects against acute epileptic seizures ([1]; extremely low dose (0.3 mpk)): partial protective effects
protective effects against acute epileptic seizures ([1]; low dose (1 mpk)): significant protective effects

C[C@@H]1C[C@H](C(=O)Cn2cncn2)[C@@]2(C)CC[C@H]3[C@@H](CC[C@@H]4C[C@](C)(O)[C@@H](C)C[C@@H]43)[C@H]12 [Example 6, 1-((2S,3S,5R,8R,9R,10S,13S,14S,15R,17S)-3-Hydroxy-2,3,13,15-tetramethylhexadecahydro-1H-cyclopenta[a]phenanthren-17-yl)-2-(1H-1,2,4-triazol-1-yl)ethan-1-one]
activation at 0.1 µM (GABAa receptor (α1β2γ2); [3]): 380%
Survival rate ([1]; dose 1 mg/kg p.o.): 90%
Survival rate ([1]; dose 3 mg/kg p.o.): 100%
Number of clonic seizures ([1]; dose 3 mg/kg p.o.): 0.8±0.2
Number of tonic seizures ([1]; dose 3 mg/kg p.o.): 0.0±0.0
Clonic seizure latency period ([1]; dose 3 mg/kg p.o.): 1132.4 ± 195.9 s
Tonic seizure latency period ([1]; dose 3 mg/kg p.o.): 1800.0 ± 0.0 s
protective effects against acute epileptic seizures ([1]; low dose (1 mpk)): significant protective effects

C[C@@H]1C[C@H](C(=O)Cn2nccn2)[C@@]2(C)CC[C@H]3[C@@H](CC[C@@H]4C[C@](C)(O)[C@@H](C)C[C@@H]43)[C@H]12 [Example 7, 1-((2S,3S,5R,8R,9R,10S,13S,14S,15R,17S)-3-Hydroxy-2,3,13,15-tetramethylhexadecahydro-1H-cyclopenta[a]phenanthren-17-yl)-2-(2H-1,2,3-triazol-2-yl)ethan-1-one]
activation at 0.1 µM (GABAa receptor (α1β2γ2); [3]): 794%
Survival rate ([1]; dose 3 mg/kg p.o.): 100%

C[C@@H]1C[C@H](C(=O)Cn2cnnn2)[C@@]2(C)CC[C@H]3[C@@H](CC[C@@H]4C[C@](C)(O)[C@@H](C)C[C@@H]43)[C@H]12 [Example 10, 1-((2S,3S,5R,8R,9R,10S,13S,14S,15R,17S)-3-Hydroxy-2,3,13,15-tetramethylhexadecahydro-1H-cyclopenta[a]phenanthren-17-yl)-2-(1H-tetrazol-1-yl)ethan-1-one]
Survival rate ([1]; dose 3 mg/kg p.o.): 100%

C[C@@H]1C[C@H](C(=O)Cn2ncnn2)[C@@]2(C)CC[C@H]3[C@@H](CC[C@@H]4C[C@H](O)[C@@H](C)C[C@@H]43)[C@H]12 [Example 17, 1-((2S,3S,5R,8R,9R,10S,13S,14S,15R,17S)-3-Hydroxy-2,13,15-trimethylhexadecahydro-1H-cyclopenta[a]phenanthren-17-yl)-2-(2H-tetrazol-2-yl)ethan-1-one]
activation at 0.1 µM (GABAa receptor (α1β2γ2); [3]): 217%

C[C@H]1C[C@H]2[C@H](CC[C@@H]3[C@@H]2CC[C@]2(C)[C@@H](C(=O)Cn4cc(C#N)cn4)CC[C@@H]32)C[C@]1(C)O [Example 19, 1-(2-((2S,3S,5R,8R,9R,10S,13S,14S,17S)-3-Hydroxy-2,3,13-trimethylhexadecahydro-1H-cyclopenta[a]phenanthren-17-yl)-2-oxoethyl)-1H-pyrazole-4-carbonitrile]
AUC(0-t) ([2]; male, ICR): 26700 ng·h/mL
Cmax ([2]; male, ICR): 1650 ng/mL
Tmax ([2]; male, ICR): 8 h
half-life ([2]; male, ICR): > 8 h
